In US20150111860A1, “SUSPOEMULSION” (SUMITOMO CHEMICAL COMPANY, LIMITED, priority 2012, published 2015):
Like-named read-outs stand apart in the source and are kept apart here.

Assay: Solubility of ingredient (2) in 100 g of the oil phase (ingredient (1)) at 25° C. by HPLC
Format: physicochemical
Experimental: The solubility can be determined in the following manner. That is, an ingredient (2) is added to an ingredient (1), followed by mixing with stirring. After being left to stand in a constant temperature water bath at 25° C., the supernatant containing the ingredient (2) in a saturated state is isolated and filtered to obtain a solution, and then a prescribed amount of an internal standard fluid is added to prepare a sample liquid for analysis. Using the sample liquid for analysis, high-performance liquid chromatography is performed, thus enabling the measurement of the solubility.

[1] = oil phase composed of pyridalyl and Exxsol D110, 25° C.

| solubility in 100 g of the oil phase [g] | SMILES | solubility in 100 g of the oil phase [1] [g] | solubility in 100 g of the oil phase (oil phase composed of esfenvalerate and Solvesso 150, 25° C.) [g] | solubility in 100 g of the oil phase (oil phase composed of tolclofos-methyl and Solvesso 150, 25° C.) [g] |
| --- | --- | --- | --- | --- |
| – | N#Cc1ccccc1NC(=O)c1snc(Cl)c1Cl [isotianil] | 0.020 | – | – |
| 0.394 | Cc1nn(C)c(Cl)c1C(=O)Nc1cccc2c1C(C)OC2(C)C (stereo not drawn) [furametpyr] | – | – | – |
| 0.003 | CCNc1nc(CC)c(C(=O)NC(C#N)c2cccs2)s1 (stereo not drawn) [ethaboxam] | – | – | – |
| – | CN/C(=N\[N+](=O)[O-])NCc1cnc(Cl)s1 [clothianidin] | 0.009 | 0.003 | 0.002 |
